Source: the supplement of paper PMC11919725

Key:
[1] = tested on: Jurkat; assay: cytotoxicity relative to DMSO, 18 h (ratio); higher = less cell death (drugs called cytotoxic fall below 1)
How it was run: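 Jurkat cells or primary CD4+/CD8+ T cells, either naive or activated for 48 h with CD3/CD28 Dynabeads, were exposed to compound from 1 nM to 10 µM in log10 steps for 18 h at 37 °C, 5% CO2. Aliquots of 100 µl of suspension were then moved to 96-well plates containing IncuCyte Cytotox Dye at 250 nM final. Cytotoxicity was read by IncuCyte fluorescence imaging, with signals corrected for confluency and normalised to the mean of control wells.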

[2] = tested on: Jurkat; assay: metabolic activity relative to DMSO, 18 h (ratio); higher = more viable
How it was run: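 Jurkat cells and primary CD4+/CD8+ T cells, naive or activated for 48 h on CD3/CD28 Dynabeads, were incubated for 18 h with compound at 1 nM–10 µM. Fluorescence was read 3.5 h after alamarBlue addition (10% v/v final) at excitation 544 nm and emission 584 nm. Metabolic activity is normalised to the mean of vehicle controls.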

[3] = tested on: Jurkat; assay: confluency relative to DMSO, 18 h (ratio); higher = more viable
How it was run: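 Compound was applied at 1 nM–10 µM (log10 steps) for 18 h at 37 °C, 5% CO2 to Jurkat cells or to primary CD4+/CD8+ T cells that were naive or had been activated 48 h with CD3/CD28 Dynabeads. Suspension (100 µl) was then plated in 96-well plates with IncuCyte Cytotox Dye and alamarBlue and imaged hourly over 3 h (×10, five images per well). Confluency was calculated from the IncuCyte phase-contrast images using the Basic Analyzer and normalised to the mean of the control wells.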

| SMILES | cytotoxicity ([1]; 1 nM) | cytotoxicity ([1]; 10 nM) | cytotoxicity ([1]; 100 nM) | cytotoxicity ([1]; 1000 nM) | cytotoxicity ([1]; 10000 nM) | metabolic activity ([2]; 1 nM) | metabolic activity ([2]; 10 nM) | metabolic activity ([2]; 100 nM) | metabolic activity ([2]; 1000 nM) | metabolic activity ([2]; 10000 nM) | confluency ([3]; 1 nM) | confluency ([3]; 10 nM) | confluency ([3]; 100 nM) | confluency ([3]; 1000 nM) | confluency ([3]; 10000 nM) |
| --- | --- | --- | --- | --- | --- | --- | --- | --- | --- | --- | --- | --- | --- | --- | --- |
| Nc1cc(C(F)(F)F)c(-c2cc(N3CCOCC3)nc(N3CCOCC3)n2)cn1 [Buparlisib] | 1.03 | 1.06 | 0.975 | 0.987 | 0.6 | 0.939 | 0.925 | 0.834 | 0.742 | 0.377 | 1.04 | 1.05 | 0.999 | 1.02 | 0.756 |
| O=c1cc(-c2ccccc2F)[nH]c2cc3c(cc12)OCO3 [CHM-1] | 0.961 | 0.929 | 0.919 | 0.618 | 0.461 | 1.02 | 1.07 | 0.992 | 0.688 | 0.704 | 0.973 | 0.963 | 0.976 | 0.71 | 0.588 |
| O=C(O)C1(C(=O)O)CCC1.[NH2-].[NH2-].[Pt+2] [Carboplatin] | 0.95 | 1.07 | 0.984 | 0.993 | 0.905 | 0.863 | 0.781 | 0.818 | 0.83 | 0.819 | 0.969 | 0.997 | 0.974 | 0.995 | 0.951 |
| CC(C)CC(NC(=O)C(CCc1ccccc1)NC(=O)CN1CCOCC1)C(=O)NC(Cc1ccccc1)C(=O)NC(CC(C)C)C(=O)C1(C)CO1 (stereo not given) [Carfilzomib] | 1.02 | 0.883 | 0.531 | 0.572 | 0.543 | 1.02 | 0.882 | 0.128 | 0.113 | 0.13 | 1 | 0.909 | 0.803 | 0.867 | 0.818 |
| CCS(=O)(=O)N1CCN(c2ccc(Nc3ncc(C(N)=O)c(NC4CC4)n3)cc2)CC1 [Cerdulatinib] | 1.03 | 1.02 | 0.925 | 0.858 | 0.921 | 0.846 | 0.868 | 0.898 | 0.941 | 0.775 | 1.04 | 1.09 | 0.975 | 0.903 | 1.07 |
| N.N.[Cl][Pt][Cl] [Cisplatin] | 0.845 | 0.582 | 0.996 | 0.984 | 1.13 | 0.96 | 0.989 | 0.983 | 0.939 | 1.02 | 0.99 | 1.09 | 1.01 | 0.934 | 1.03 |
| O=C(CCCCCCNC(=O)c1cnc(N(c2ccccc2)c2ccccc2Cl)nc1)NO [Citarinostat] | 1.03 | 1.04 | 0.967 | 0.941 | 0.871 | 0.94 | 1.02 | 0.916 | 0.886 | 0.632 | 0.975 | 1 | 0.987 | 0.98 | 0.949 |
| COc1cc2c(c(OC)c1OC)-c1ccc(OC)c(=O)cc1C(NC(C)=O)CC2 (stereo not given) [Colchicine] | 0.985 | 1.19 | 0.649 | 0.552 | 0.539 | 0.862 | 0.83 | 0.595 | 0.519 | 0.476 | 1 | 1.03 | 0.72 | 0.663 | 0.637 |
| COc1c(OCCCN2CCOCC2)ccc2c3n(c(=NC(=O)c4cnc(N)nc4)nc12)CCN3 [Copanlisib] | 0.843 | 1.05 | 0.885 | 0.619 | 0.712 | 1.04 | 1.06 | 0.753 | 0.523 | 0.435 | 0.918 | 1.05 | 0.903 | 0.789 | 0.932 |
| CC(Oc1cc(-c2cnn(C3CCNCC3)c2)cnc1N)c1c(Cl)ccc(F)c1Cl (stereo not given) [Crizotinib] | 0.908 | 0.369 | 1.08 | 0.848 | 0.768 | 0.831 | 0.944 | 0.836 | 0.975 | 0.882 | 1.1 | 0.657 | 1 | 0.919 | 0.771 |
| O=P1(N(CCCl)CCCl)NCCCO1 (stereo not given) [Cyclophosphamide] | 1.16 | 0.989 | 0.959 | 0.983 | 0.977 | 1.14 | 1.07 | 1.04 | 1.02 | 1.03 | 1.01 | 0.94 | 0.948 | 0.977 | 0.951 |
| CC(C)(C)c1nc(-c2cccc(NS(=O)(=O)c3c(F)cccc3F)c2F)c(-c2ccnc(N)n2)s1 [Dabrafenib] | 0.941 | 0.994 | 0.966 | 0.846 | 0.863 | 0.973 | 1.02 | 0.992 | 0.91 | 0.73 | 0.98 | 1 | 0.973 | 0.971 | 0.965 |
| Cn1c(=O)n(-c2ccc(C(C)(C)C#N)cc2)c2c3cc(-c4cnc5ccccc5c4)ccc3ncc21 [Dactolisib] | 0.958 | 0.809 | 0.746 | 0.927 | 0.822 | 0.966 | 0.894 | 0.652 | 0.601 | 0.578 | 0.986 | 0.909 | 0.978 | 1.05 | 0.946 |
| Cc1nc(Nc2ncc(C(=O)Nc3c(C)cccc3Cl)s2)cc(N2CCN(CCO)CC2)n1 [Dasatinib] | 0.993 | 0.967 | 0.979 | 0.994 | 0.882 | 1.07 | 1.07 | 1.01 | 0.989 | 0.845 | 0.949 | 0.946 | 0.958 | 0.965 | 0.91 |
| CCC(C)(Nc1ccnc(-c2c[nH]c3ncccc23)n1)C(=O)NCC(F)(F)F (stereo not given) [Decernotinib] | 1.1 | 1.09 | 1.01 | 1.04 | 1.03 | 1.08 | 1.08 | 1.02 | 1.05 | 1.07 | 1.03 | 1.03 | 0.996 | 0.993 | 0.96 |
| Nc1ncn(C2CC(O)C(CO)O2)c(=O)n1 (stereo not given) [Decitabine] | 0.966 | 0.964 | 0.922 | 0.869 | 0.862 | 1.05 | 1.04 | 1.02 | 0.948 | 0.867 | 1.02 | 1.01 | 0.986 | 0.972 | 0.939 |
| CCc1cnn2c(NCc3ccc[n+]([O-])c3)cc(N3CCCCC3CCO)nc12 (stereo not given) [Dinaciclib] | 0.926 | 1.03 | 0.821 | 0.989 | 1.09 | 0.162 | 0.147 | 0.13 | 0.139 | 0.128 | 0.988 | 1.02 | 0.864 | 0.871 | 1.16 |
| Cn1cc(-c2ccc(S(=O)(=O)n3ccc(C=CC(=O)Nc4ccccc4N)c3)cc2)cn1 [Domatinostat] | 0.906 | 0.925 | 0.886 | 1.06 | 0.636 | 1.1 | 1.12 | 1.03 | 0.922 | 0.704 | 0.879 | 0.91 | 0.901 | 1.03 | 0.63 |
| COc1cccc2c1C(=O)c1c(O)c3c(c(O)c1C2=O)CC(O)(C(=O)CO)CC3OC1CC(N)C(O)C(C)O1 (stereo not given) [Doxorubicin] | 1.05 | 0.983 | 0.967 | 0.871 | 0.618 | 1.09 | 0.901 | 0.89 | 0.823 | 0.342 | 1.04 | 0.98 | 0.995 | 0.993 | 1.07 |
| Nc1ccccc1NC(=O)c1ccc(CNC(=O)OCc2cccnc2)cc1 [Entinostat] | 1.09 | 0.937 | 0.912 | 0.891 | 1.01 | 0.904 | 0.811 | 0.957 | 0.923 | 0.727 | 1.04 | 0.967 | 0.939 | 0.906 | 0.947 |
| COC1CC2CCC(C)C(O)(O2)C(=O)C(=O)N2CCCCC2C(=O)OC(C(C)CC2CCC(OCCO)C(OC)C2)CC(=O)C(C)C=C(C)C(O)C(OC)C(=O)C(C)CC(C)C=CC=CC=C1C (stereo not given) [Everolimus] | 0.853 | 0.843 | 0.947 | 0.996 | 0.893 | 0.773 | 0.935 | 0.975 | 0.958 | 0.981 | 0.88 | 0.877 | 0.969 | 1.06 | 0.906 |
| COc1ccc(-c2nc(N3CCOCC3)c3sc(CN(C)c4ncc(C(=O)NO)cn4)cc3n2)cn1 [Fimepinostat] | 0.792 | 1.09 | 1.05 | 1.12 | 0.892 | 0.731 | 0.914 | 0.796 | 0.772 | 0.42 | 0.995 | 1.12 | 1.2 | 1.31 | 1.23 |
| COc1cc(Nc2ncc(F)c(Nc3ccc4c(n3)N(COP(=O)(O)O)C(=O)C(C)(C)O4)n2)cc(OC)c1OC [Fostamatinib] | 1.06 | 1.05 | 0.951 | 0.893 | 0.783 | 1.21 | 1.23 | 1.1 | 1.01 | 0.925 | 1 | 0.995 | 0.961 | 0.911 | 0.821 |
| CCNC(=O)Nc1ccc(-c2nc3c(c(N4CCOCC4C)n2)CCN(C2COC2)C3)cc1 (stereo not given) [GDC-0349] | 0.991 | 0.972 | 0.947 | 0.887 | 0.78 | 0.925 | 0.919 | 0.886 | 0.841 | 0.798 | 0.992 | 0.981 | 0.955 | 0.932 | 0.873 |
| COC1=C2CC(C)CC(OC)C(O)C(C)C=C(C)C(OC(N)=O)C(OC)C=CC=C(C)C(=O)NC(=CC1=O)C2=O (stereo not given) [Geldanamycin] | 0.946 | 0.982 | 0.745 | 0.815 | 0.798 | 0.985 | 0.95 | 0.767 | 0.567 | 0.7 | 0.963 | 1.02 | 0.786 | 0.971 | 0.975 |
| Nc1ccn(C2OC(CO)C(O)C2(F)F)c(=O)n1 (stereo not given) [Gemcitabine] | 0.927 | 1.01 | 0.921 | 0.651 | 0.602 | 1 | 1.07 | 0.61 | 0.712 | 0.724 | 0.916 | 0.993 | 1.04 | 0.732 | 0.69 |
| CCN(CC)Cc1ccc2cc(COC(=O)Nc3ccc(C(=O)NO)cc3)ccc2c1 [Givinostat] | 1.15 | 1.01 | 1.06 | 1.03 | 1.04 | 0.902 | 0.981 | 0.969 | 0.845 | 0.762 | 1.05 | 0.98 | 1.05 | 1.18 | 1.2 |
| COc1ccc(S(=O)(=O)N(C(C)=O)c2ccccc2C=Cc2cc[n+]([O-])cc2)cc1 [HMN-214] | 1.11 | 0.94 | 0.954 | 0.982 | 0.602 | 1.11 | 0.973 | 0.813 | 0.779 | 0.503 | 0.983 | 0.99 | 0.993 | 0.979 | 0.694 |
| NC1CCC(NC2CC2c2ccccc2)CC1 (stereo not given) [Iadademstat] | 0.988 | 0.933 | 0.928 | 1.14 | 1.15 | 0.93 | 0.857 | 0.737 | 1.09 | 0.95 | 1.01 | 0.967 | 1.02 | 1.03 | 1.05 |
